Reference: patent US20150057246A1, “SILYL-CONTAINING HETEROCYCLIC COMPOUNDS AND METHODS OF USE THEREOF FOR THE TREATMENT OF VIRAL DISEASES” (priority 2012, published 2015)
Like-named read-outs stand apart in the source and are kept apart here.

Key:
HCV 1a Y93H replicon = assay: Cell-based HCV replicon assay (TaqMan), 1a Y93H mutant replicon; details: EC90 = concentration for ΔCT=3.2 over baseline
Method: (§1) Measurement of inhibition by compounds of the present invention was performed using the HCV replicon system. Several different replicons encoding different HCV genotypes or mutations were used. In addition, potency measurements were made using different formats of the replicon assay, including different ways of measurements and different plating formats. See Jan M. Vrolijk et al., A replicons-based bioassay for the measurement of interferons in patients with chronic hepatitis C, 110 J. VIROLOGICAL METHODS 201 (2003); Steven S. Carroll et al., Inhibition of Hepatitis C Virus RNA Replication by 2′-Modified Nucleoside Analogs, 278(14) J. BIOLOGICAL CHEMISTRY 11979 (2003). However, the underlying principles are common to all of these determinations, and are outlined below.
(§2) TaqMan®-Based Assay Protocol:
(§3) Compounds of the present invention were assayed for cell-based anti-HCV activity using the following protocol. Replicon cells were seeded at 5000 cells/well in 96-well collagen I-coated Nunc plates in the presence of the test compound. Various concentrations of test compound, typically in 10 serial 2-fold dilutions, were added to the assay mixture, with the starting concentration ranging from 250 μM to 1 μM. The final concentration of DMSO was 0.5%, fetal bovine serum was 5%, in the assay media. Cells were harvested on day 3 by the addition of 1× cell lysis buffer (Ambion cat #8721). The replicon RNA level was measured using real time PCR (TaqMan® assay). The amplicon was located in 5B. The PCR primers were: 5B.2F, ATGGACAGGCGCCCTGA (SEQ. ID NO. 1); 5B.2R, […] (SEQ. ID NO. 2); the probe sequence was FAM-labeled CACGCCATGCGCTGCGG (SEQ. ID NO. 3). GAPDH RNA was used as endogenous control and was amplified in the same reaction as NS5B (multiplex PCR) using primers and VIC-labeled probe recommended by the manufacturer (PE Applied Biosystem). The real-time […] reactions were run on ABI PRISM 7900HT Sequence Detection System using the following program: 48° C. for 30 minutes, 95° C. for 10 minutes, 40 cycles of 95° C. for 15 sec, 60° C. for 1 minute. The ΔCT values (CT5B-CTGAPDH) were plotted against the concentration of test compound and fitted to the sigmoid dose-response model using XLfit4 (MDL). EC50 was defined as the concentration of inhibitor necessary to achieve ΔCT=1 over the projected baseline; EC90 the concentration necessary to achieve ΔCT=3.2 over the baseline. Alternatively, to quantitate the absolute amount of replicon RNA, a standard curve was established by including serially diluted T7 transcripts of replicon RNA in the Taqman assay. All TaqMan® reagents were from PE Applied Biosystems. Such an assay procedure was described in detail in e.g. Malcolm et al., Antimicrobial Agents and Chemotherapy 50: 1013-1020 (2006).
(§4) HCV replicon EC50 assay data for various replicons and mutants was calculated for selected compounds of the present invention using this method and is provided in the tables above herein.

HCV 1a replicon = assay: Cell-based HCV replicon assay (TaqMan), genotype 1a replicon; details: HCV genotype 1a replicon cells, replicon RNA by real time PCR, day 3, EC90 = concentration for ΔCT=3.2 over baseline
Method: as §1, §2, §3, §4

HCV 1b replicon = assay: Cell-based HCV replicon assay (TaqMan), genotype 1b replicon; details: HCV genotype 1b replicon cells, replicon RNA by real time PCR, day 3, EC90 = concentration for ΔCT=3.2 over baseline
Method: as §1, §2, §3, §4

HCV 2b replicon = assay: Cell-based HCV replicon assay (TaqMan), genotype 2b replicon; details: Hepatitis C virus, 72 h, read-out: 2b EC90, HCV genotype 2b replicon cells, replicon RNA by real time PCR, day 3; EC90 = concentration for ΔCT=3.2 over baseline
Method: as §1, §2, §3, §4

[1] = Hepatitis C virus, 72 h, read-out: 1a Y93H EC90, HCV 1a Y93H mutant replicon cells, replicon RNA by real time PCR, day 3

SMILES | EC90 (HCV 1a Y93H replicon; [1]) | EC90 (HCV 1a replicon; Hepatitis C virus, 72 h) | EC90 (HCV 1b replicon; Hepatitis C virus, 72 h) | EC90 (HCV 1a Y93H replicon; read-out: 1a Y93H EC90, HCV 1a Y93H mutant replicon cells, replicon RNA by real time PCR, day 3) | EC90 (HCV 1a replicon) | EC90 (HCV 1b replicon) | EC90 (HCV 2b replicon)
COC(=O)N[C@H](C(=O)N1C[Si](C)(C)C[C@H]1c1ncc(-c2ccc(-c3ccc4c(ccc5nc([C@@H]6CCCN6C(=O)[C@@H](NC(=O)OC)C(C)C)[nH]c54)c3)cc2)[nH]1)C(C)C [Compound 3] | 280 nM | 0.031 nM | 0.006 nM |  |  |  | 
COC(=O)N[C@H](C(=O)N1C[Si](C)(C)C[C@H]1c1ncc(-c2ccc(-c3ccc4c(ccc5[nH]c([C@@H]6[C@H]7CC[C@H](C7)N6C(=O)[C@@H](NC(=O)OC)C(C)C)nc54)c3)cc2)[nH]1)C(C)C [Compound 4] | 333 nM | 0.097 nM | 0.005 nM |  |  |  | 
COC(=O)N[C@H](C(=O)N1CCC[C@H]1c1ncc(-c2ccc(-c3ccc4c(ccc5nc([C@@H]6C[Si](C)(C)CN6C(=O)[C@@H](NC(=O)OC)C(C)C)[nH]c54)c3)cc2)[nH]1)C(C)C [Compound 5] | 181 nM | 0.012 nM | 0.006 nM |  |  |  | 
COC(=O)N[C@H](C(=O)N1C[Si](C)(C)C[C@H]1c1nc2ccc3cc(-c4ccc(-c5cnc([C@@H]6[C@H]7CC[C@H](C7)N6C(=O)[C@@H](NC(=O)OC)C(C)C)[nH]5)cc4)ccc3c2[nH]1)C(C)C [Compound 6] | 404 nM | 0.17 nM | 0.02 nM |  |  |  | 
COC(=O)N[C@H](C(=O)N1CC(F)(F)C[C@H]1c1ncc(-c2ccc(-c3ccc4c(ccc5nc([C@@H]6C[Si](C)(C)CN6C(=O)[C@@H](NC(=O)OC)C(C)C)[nH]c54)c3)cc2)[nH]1)C(C)C [Compound 7] | 172 nM | 0.047 nM | 0.005 nM |  |  |  | 
COC(=O)N[C@H](C(=O)N1C[Si](C)(C)C[C@H]1c1ncc(-c2ccc(-c3ccc4c(ccc5nc([C@@H]6CC(F)(F)CN6C(=O)[C@@H](NC(=O)OC)C(C)C)[nH]c54)c3)cc2)[nH]1)C(C)C [Compound 8] | 65 nM | 0.042 nM | 0.02 nM |  |  |  | 
COC(=O)N[C@H](C(=O)N1CC(F)(F)C[C@H]1c1nc2ccc3cc(-c4ccc5c(ccc6nc([C@@H]7C[Si](C)(C)CN7C(=O)[C@@H](NC(=O)OC)C(C)C)[nH]c65)c4)ccc3c2[nH]1)C(C)C [Compound 9] | 169 nM | 0.02 nM | 0.007 nM |  |  |  | 
COC(=O)N[C@H](C(=O)N1C[C@H](F)C[C@H]1c1ncc(-c2ccc(-c3ccc4c(ccc5nc([C@@H]6C[Si](C)(C)CN6C(=O)[C@@H](NC(=O)OC)C(C)C)[nH]c54)c3)cc2)[nH]1)C(C)C [Compound 10] | 92 nM | 0.15 nM | 0.009 nM |  |  |  | 
COC(=O)N[C@H](C(=O)N1C[C@H](O)C[C@H]1c1ncc(-c2ccc(-c3ccc4c(ccc5nc([C@@H]6C[Si](C)(C)CN6C(=O)[C@@H](NC(=O)OC)C(C)C)[nH]c54)c3)cc2)[nH]1)C(C)C [Compound 11] | 152 nM | 0.26 nM | 0.008 nM |  |  |  | 
COC(=O)N[C@H](C(=O)N1C[Si](C)(C)C[C@H]1c1nc2ccc3cc(-c4ccc(-c5cnc([C@@H]6C[C@H]7C[C@H]7N6C(=O)[C@@H](NC(=O)OC)C(C)C)[nH]5)cc4)ccc3c2[nH]1)C(C)C [Compound 12] |  |  |  | > 100 nM | 0.006 nM | 0.001 nM | 
COC(=O)N[C@H](C(=O)N1CCC[C@H]1c1ncc(-c2ccc(-c3ccc4c(ccc5nc([C@@H]6C[Si](C)(C)CN6C(=O)[C@@H](NC(=O)OC)C6CCOCC6)[nH]c54)c3)cc2)[nH]1)C1CCOCC1 [Compound 18] | > 100 nM | 0.023 nM | 0.014 nM |  |  |  | 2.8 nM
CC[C@H](C)[C@H](NC(=O)OC)C(=O)N1CCC[C@H]1c1ncc(-c2ccc(-c3ccc4c(ccc5nc([C@@H]6C[Si](C)(C)CN6C(=O)[C@@H](NC(=O)OC)[C@@H](C)CC)[nH]c54)c3)cc2)[nH]1 [Compound 22] | 746 nM | 0.35 nM | 0.03 nM |  |  |  | 250 nM
COC(=O)N[C@H](C(=O)N1CCC[C@H]1c1ncc(-c2ccc(-c3ccc4c(ccc5nc([C@@H]6C[Si](C)(C)CN6C(=O)[C@@H](NC(=O)OC)C6CCCCC6)[nH]c54)c3)cc2)[nH]1)C(C)C [Compound 67] | > 1000 nM | 0.5 nM | 0.02 nM |  |  |  | 129 nM
COC(=O)N[C@H](C(=O)N1CCC[C@H]1c1ncc(-c2ccc(-c3ccc4c(ccc5nc([C@@H]6C[Si](C)(C)CN6C(=O)[C@@H](NC(=O)OC)[C@H](O)C(C)C)[nH]c54)c3)cc2)[nH]1)C(C)C [Compound 68] | > 1000 nM | 0.21 nM | 0.02 nM |  |  |  | 143 nM
COC(=O)N[C@H](C(=O)N1CCC[C@H]1c1ncc(-c2ccc(-c3ccc4c(ccc5nc([C@@H]6C[Si](C)(C)CN6C(=O)[C@@H](NC(=O)OC)C6CCOCC6)[nH]c54)c3)cc2)[nH]1)C(C)C [Compound 69] | 118 nM | 0.33 nM | 0.05 nM |  |  |  | 19 nM
COC(=O)N[C@H](C(=O)N1CCC[C@H]1c1ncc(-c2ccc(-c3ccc4c(ccc5nc([C@@H]6C[Si](C)(C)CN6C(=O)[C@@H](NC(=O)OC)C6CC6)[nH]c54)c3)cc2)[nH]1)C(C)C [Compound 70] | > 1000 nM | 0.35 nM | 0.02 nM |  |  |  | 162 nM
COC(=O)N[C@H](C(=O)N1CCC[C@H]1c1ncc(-c2ccc(-c3ccc4c(ccc5nc([C@@H]6C[Si](C)(C)CN6C(=O)C6(NC(=O)OC)CCC6)[nH]c54)c3)cc2)[nH]1)C(C)C [Compound 71] | 288 nM | 10 nM | 0.03 nM |  |  |  | 205 nM
COC(=O)N[C@@H](CC(C)(C)C)C(=O)N1C[Si](C)(C)C[C@H]1c1nc2ccc3cc(-c4ccc(-c5cnc([C@@H]6CCCN6C(=O)[C@@H](NC(=O)OC)C(C)C)[nH]5)cc4)ccc3c2[nH]1 [Compound 72] | 130 nM | 0.18 nM | 0.02 nM |  |  |  | 114 nM
COC(=O)N[C@@H](CN(C)C)C(=O)N1C[Si](C)(C)C[C@H]1c1nc2ccc3cc(-c4ccc(-c5cnc([C@@H]6CCCN6C(=O)[C@@H](NC(=O)OC)C(C)C)[nH]5)cc4)ccc3c2[nH]1 [Compound 73] | > 1000 nM | 0.19 nM | 0.05 nM |  |  |  | 110 nM
COC(=O)N[C@H](C(=O)N1CCC[C@H]1c1ncc(-c2ccc(-c3ccc4c(ccc5nc([C@@H]6C[Si](C)(C)CN6C(=O)[C@H](NC(=O)OC)C(C)(C)OC)[nH]c54)c3)cc2)[nH]1)C(C)C [Compound 74] | > 1000 nM | 1.3 nM | 0.03 nM |  |  |  | 380 nM
COC(=O)NC(Cc1cccs1)C(=O)N1C[Si](C)(C)C[C@H]1c1nc2ccc3cc(-c4ccc(-c5cnc([C@@H]6CCCN6C(=O)[C@@H](NC(=O)OC)C(C)C)[nH]5)cc4)ccc3c2[nH]1 (stereo partly drawn) [Compound 75] | > 1000 nM | 3.4 nM | 0.04 nM |  |  |  | 425 nM
COC(=O)N[C@@H](CSC)C(=O)N1C[Si](C)(C)C[C@H]1c1nc2ccc3cc(-c4ccc(-c5cnc([C@@H]6CCCN6C(=O)[C@@H](NC(=O)OC)C(C)C)[nH]5)cc4)ccc3c2[nH]1 [Compound 76] | 984 nM | 0.25 nM | 0.03 nM |  |  |  | 108 nM
COC(=O)N[C@H](C(=O)N1CCC[C@H]1c1ncc(-c2ccc3cc(-c4ccc5c(ccc6nc([C@@H]7C[Si](C)(C)CN7C(=O)[C@@H](NC(=O)OC)C7CCOCC7)[nH]c65)c4)ccc3c2)[nH]1)C1CCOCC1 [Compound 113] |  | 0.026 nM | > 1 nM |  |  |  | 97 nM
